Data taken from patent US20070122907A1, “Orchid culturing method” (priority 2005, published 2007).

Columns and labels:
[1] = test system: Phalaenopsis plants; assay: Induction of spiking in potted Phalaenopsis by spraying, number of inflorescences per plant; assay type: in vivo; conditions: spray 1000 ppm, 0.1% Zipper, 1% DMSO, 100 plants
From the text: Growing conditions for the plants throughout the whole greenhouse stay are the same, except for the above discussed variations in light and temperature. Preferably this means that the plants are potted in pots with a diameter of 10-20 cm, with a growing medium of bark, coconut, Styrofoam, sphagnum moss and turf. Preferably they are stored on table-high racks, which facilitates handling. Light intensity on the surface of the pot is 3000-15000 lux (see Schapendonlk, A.H.C.M., “Belichting Phalaenopsis”, PT-Project 12170, productverslag, Productschap Tuinbouw). Normal daylight is maintained, but preferably in wintertime a lights on:lights off regime of 14:10 hours is used. Watering is preferably automated and is taken care of by a sprinkler system or any other spraying system, an ebb and flow system, via gutters running along the racks, or by submerging the pots in a water basin Nutrients and/or fertiliser are added to the water on a regular basis (EC 0,5-2, NPK 20-20-20). See also ook “Cultivation Guidelines Phalaenopsis Pot Plants, supra.
In June 2004 three groups of Phalaenopsis plants have been induced 6 months after potting. For testing 100 plants were treated and 100 non-treated controls were used per variety. Both groups of plants were cultured as described above. […] The results in Table 1 show the number of inflorescences per plant for the different test groups.

[2] = test system: Phalaenopsis; conditions: cited from earlier work
[3] = test system: Dendrobium; conditions: application to the mature pseudobulbs, not the developing ones; cited from earlier work

SMILES: c1ccc(CNc2ncnc3nc[nH]c23)cc1 [6-BA-P, 6-benzylaminopurine]
- Average stemcount treated ([1]; variety Anthura Malaga, untreated 1.23): 3.61
- Average stemcount treated ([1]; variety Brother John Red Delight, untreated 1.13): 3.20
- Average stemcount treated ([1]; variety Dutch Lady, untreated 1.58): 3.84
- Average stemcount treated ([1]; variety Golden Treasure, untreated 1.44): 2.97
- Average stemcount treated ([1]; variety Lippe Flair 344, untreated 1.32): 3.38
- Average stemcount treated ([1]; variety Maliby Leopard, untreated 1.51): 3.12
- induction of off-season spiking [2]: unable to induce off-season spiking
- triggering of spiking [3]: shown to trigger spiking
